Our source for the Activity values is ChEMBL document CHEMBL1135076, “Leishmanicidal activity of some aliphatic diamines and amino-alcohols” (Bioorg Med Chem Lett, 2002).

Molecules are shown by their SMILES.

What all share (format): functional, organism-based
Experiment [1] deals with Leishmania donovani. Description: Tested in vitro for leishmanicidal activity against Leishmania donovani (PP75) at the concentration of 50 ug/mL;++ indicates 80-90% lysis of parasites.
For experiment [2], the system named is Leishmania braziliensis. Description: Tested in vitro for leishmanicidal activity against Leishmania brasiliensis (2903) at the concentration of 10 ug/mL;+ indicates Less than 70% lysis of parasites.
The test system of experiment [3] is Leishmania braziliensis. The experiment can be described thus: Tested in vitro for leishmanicidal activity against Leishmania brasiliensis (2903) at the concentration of 50 ug/mL;++ indicates 80-90% lysis of parasites.
In experiment [4] the test system is Leishmania donovani. The experiment can be described thus: In vitro for leishmanicidal activity against Leishmania donovani (PP75) at the concentration of 10 ug/mL.
For experiment [5], the system named is Leishmania donovani. Description: In vitro for leishmanicidal activity against Leishmania donovani (PP75) at the concentration of 100 ug/mL.
In experiment [6] the test system is Leishmania donovani. The experiment can be described thus: Tested in vitro for leishmanicidal activity against Leishmania donovani (PP75) at the concentration of 25 ug/mL;+ indicates Less than 70% lysis of parasites.
Experiment [7] concerns Leishmania amazonensis. Description: In vitro for leishmanicidal activity against Leishmania amazonensis (PH8) at the concentration of 100 ug/mL.
Experiment [8] concerns Leishmania amazonensis. The experiment can be described thus: Tested in vitro for leishmanicidal activity against Leishmania amazonensis (PH8) at the concentration of 25 ug/mL; + indicates less than 70% lysis of parasites.
Experiment [9] has as its system Leishmania amazonensis. Description: Tested in vitro for leishmanicidal activity against Leishmania amazonensis (PH8) at the concentration of 50 ug/mL; ++ indicates 80-90% lysis of parasites.
In experiment [10] the test system is Leishmania braziliensis. Description: In vitro for leishmanicidal activity against Leishmania brasiliensis (2903) at the concentration of 100 ug/mL.
In experiment [11] the test system is Leishmania braziliensis. Description: Tested in vitro for leishmanicidal activity against Leishmania brasiliensis (2903) at the concentration of 25 ug/mL;+ indicates Less than 70% lysis of parasites.
The subject of experiment [12] is Leishmania amazonensis. Description: In vitro for leishmanicidal activity against Leishmania amazonensis (PH8) at the concentration of 10 ug/mL.
In experiment [13] the test system is Leishmania braziliensis. Description: In vitro for leishmanicidal activity against Leishmania brasiliensis (2903) at the concentration of 10 ug/mL.
In experiment [14] the test system is Leishmania donovani. The experiment can be described thus: Tested in vitro for leishmanicidal activity against Leishmania donovani (PP75) at the concentration of 10 ug/mL.
For experiment [15], the system named is Leishmania braziliensis. Description: Tested in vitro for leishmanicidal activity against Leishmania brasiliensis (2903) at the concentration of 100 ug/mL; + indicates Less than 70% lysis of parasites.
In experiment [16] the test system is Leishmania braziliensis. Description: In vitro for leishmanicidal activity against Leishmania brasiliensis (2903) at the concentration of 50 ug/mL.
The subject of experiment [17] is Leishmania donovani. Description: Tested in vitro for leishmanicidal activity against Leishmania donovani (PP75) at the concentration of 100 ug/mL;+ indicates Less than 70% lysis of parasites.
Experiment [18] deals with Leishmania donovani. The experiment can be described thus: In vitro for leishmanicidal activity against Leishmania donovani (PP75) at the concentration of 25 ug/mL.
In experiment [19] the test system is Leishmania donovani. Description: In vitro for leishmanicidal activity against Leishmania donovani (PP75) at the concentration of 50 ug/mL.
The subject of experiment [20] is Leishmania amazonensis. Description: Tested in vitro for leishmanicidal activity against Leishmania amazonensis (PH8) at the concentration of 100 ug/mL; + indicates Less than 70% lysis of parasites.
Experiment [21] concerns Leishmania amazonensis. The experiment can be described thus: In vitro for leishmanicidal activity against Leishmania amazonensis (PH8) at 25 ug/mL; No lysis of parasites.
Experiment [22] has as its system Leishmania amazonensis. Description: In vitro for leishmanicidal activity against Leishmania amazonensis (PH8) at the concentration of 50 ug/mL.
In experiment [23] the test system is Leishmania braziliensis. Description: In vitro for leishmanicidal activity against Leishmania brasiliensis (2903) at the concentration of 25 ug/mL.
Experiment [24] concerns Leishmania braziliensis. Description: Tested in vitro for leishmanicidal activity against Leishmania brasiliensis (2903) at the concentration of 50 ug/mL;+ indicates Less than 70% lysis of parasites.
The test system of experiment [25] is Leishmania donovani. Description: Tested in vitro for leishmanicidal activity against Leishmania donovani (PP75) at the concentration of 50 ug/mL;+ indicates Less than 70% lysis of parasites.
Experiment [26] concerns Leishmania amazonensis. Description: Tested in vitro for leishmanicidal activity against Leishmania amazonensis (PH8) at the concentration of 50 ug/mL; + indicates less than 70% lysis of parasites.
Experiment [27] relates to Leishmania braziliensis. Description: Tested in vitro for leishmanicidal activity against Leishmania brasiliensis (2903) at the concentration of 100 ug/mL;++ indicates 80-90% lysis of parasites.
Experiment [28] concerns Leishmania braziliensis. Description: Tested in vitro for leishmanicidal activity against Leishmania brasiliensis (2903) at the concentration of 25 ug/mL;++ indicates 80-90% lysis of parasites.
The test system of experiment [29] is Leishmania donovani. Description: Tested in vitro for leishmanicidal activity against Leishmania donovani (PP75) at the concentration of 25 ug/mL;++ indicates 80-90% lysis of parasites.
The subject of experiment [30] is Leishmania amazonensis. The experiment can be described thus: Tested in vitro for leishmanicidal activity against Leishmania amazonensis (PH8) at the concentration of 25 ug/mL; ++ indicates 80-90% lysis of parasites.
The test system of experiment [31] is Leishmania braziliensis. Description: Tested in vitro for leishmanicidal activity against Leishmania brasiliensis (2903) at the concentration of 10 ug/mL; + indicates Less than 70% lysis of parasites.
The test system of experiment [32] is Leishmania amazonensis. Description: Tested in vitro for leishmanicidal activity against Leishmania amazonensis (PH8) at the concentration of 50 ug/mL;++ indicates 80-90% lysis of parasites.
Experiment [33] deals with Leishmania braziliensis. Description: Tested in vitro for leishmanicidal activity against Leishmania brasiliensis (2903) at the concentration of 25 ug/mL; + indicates Less than 70% lysis of parasites.
In experiment [34] the test system is Leishmania braziliensis. The experiment can be described thus: Tested in vitro for leishmanicidal activity against Leishmania brasiliensis (2903) at the concentration of 10 ug/mL;++ indicates 80-90% lysis of parasites.
Experiment [35] has as its system Leishmania donovani. Description: Tested in vitro for leishmanicidal activity against Leishmania donovani (PP75) at the concentration of 10 ug/mL;++ indicates 80-90% lysis of parasites.
Experiment [36] deals with Leishmania amazonensis. The experiment can be described thus: Tested in vitro for leishmanicidal activity against Leishmania amazonensis (PH8) at the concentration of 10 ug/mL; ++ indicates 80-90% lysis of parasites.

With `CCCCCCCCCCCCCCC(N)CNCC` (centres undefined), the Activity in [1] is 80-90% lysis of parasites; in experiment [2] it was 80-90% lysis of parasites; in experiment [3], 80-90% lysis of parasites; in experiment [4], 80-90% lysis of parasites; in experiment [5], “+”; in [6], 80-90% lysis of parasites. Moreover, the Activity entry in [7] was “+”; in experiment [8], 80-90% lysis of parasites; in experiment [9] it was 80-90% lysis of parasites; in experiment [10], “+”; in [11], 80-90% lysis of parasites; in [12] it was 80-90% lysis of parasites.
Turning to `CCCCCCCCCCCCCCC(N)CN(CC(=O)O)CC(=O)O` (centres undefined), the Activity in [1] is 80-90% lysis of parasites; in experiment [13], 80-90% lysis of parasites; in experiment [3], 80-90% lysis of parasites; in experiment [14], 80-90% lysis of parasites; in [5], “+”; in experiment [6] it was 80-90% lysis of parasites. In addition, the Activity entry is “+” in experiment [7]; 80-90% lysis of parasites in experiment [8]; 80-90% lysis of parasites in experiment [9]; “+” in experiment [10]; 80-90% lysis of parasites in experiment [11]; 80-90% lysis of parasites in experiment [12].
As to `CCCCCCCCCCCCCCC(N)COCc1ccccc1` (centres undefined), the Activity result in experiment [13], in experiment [15], in [16], in [14], in experiment [17] and in experiment [18] was “Less than 70% lysis of parasites” each time. Besides, the Activity result in experiment [19], in [20], in [21], in experiment [22], in experiment [23] and in [12] was “Less than 70% lysis of parasites” in each case.
Take `CCCCCCCCCCCCCCC(N)CNCC(=O)O` (centres undefined): the Activity in experiment [13] was 80-90% lysis of parasites; in experiment [24], 80-90% lysis of parasites; in experiment [14], 80-90% lysis of parasites; in experiment [5], “+”; in experiment [18] it was 80-90% lysis of parasites; in experiment [25], 80-90% lysis of parasites. For the same molecule, the Activity in [7], in experiment [21], in [26], in [27], in experiment [23] and in experiment [12] was 80-90% lysis of parasites each time.
For the molecule `CCCCCCCCCCCCCCC(N)CNCC(=O)OCC` (centres undefined), the Activity entry in [2] is “Less than 70% lysis of parasites”; in experiment [24], “Less than 70% lysis of parasites”; in experiment [4], “Less than 70% lysis of parasites”; in experiment [5] it was “+”; in [6], “Less than 70% lysis of parasites”; in experiment [25], “Less than 70% lysis of parasites”. The Activity entry in experiment [7] was “+”; in [8] it was “Less than 70% lysis of parasites”; in experiment [26], “Less than 70% lysis of parasites”; in experiment [10], “+”; in experiment [11] it was “Less than 70% lysis of parasites”; in [12] it was “Less than 70% lysis of parasites”.
As for `CCCCCCCCCCCCCCC(N)CNC(=O)CCCC(=O)O` (centres undefined), the Activity was 80-90% lysis of parasites in experiment [2]; 80-90% lysis of parasites in experiment [28]; 80-90% lysis of parasites in [4]; “+” in experiment [5]; 80-90% lysis of parasites in experiment [29]; “+” in [19]. The Activity entry was “+” in experiment [7]; 80-90% lysis of parasites in experiment [30]; “+” in [22]; “+” in experiment [10]; 80-90% lysis of parasites in [12].
For `CCCCCCCCCCCCCCC(CO)NC(=O)CCCC(=O)O` (centres undefined), the Activity was 80-90% lysis of parasites in experiment [1]; 80-90% lysis of parasites in [31]; 80-90% lysis of parasites in [3]; 80-90% lysis of parasites in [4]; “+” in experiment [5]; 80-90% lysis of parasites in experiment [6]. The Activity result was “+” in experiment [7]; 80-90% lysis of parasites in experiment [8]; 80-90% lysis of parasites in [32]; 80-90% lysis of parasites in experiment [33]; 80-90% lysis of parasites in experiment [12].
For `CCCCCCCCCCCCCCC(CN(CC)CC)NC(=O)OC(C)(C)C` (centres undefined), the Activity in [34] was 80-90% lysis of parasites; in [35], 80-90% lysis of parasites; in [5], “+”; in experiment [19], “+”; in experiment [7] it was “+”; in experiment [22], “+”. The figures for the Activity entry in experiment [10] and in experiment [36] were “+” and 80-90% lysis of parasites, respectively.
Turning to `CCCCCCCCCCCCCCC(COCc1ccccc1)NC(=O)OC(C)(C)C` (centres undefined), the Activity result in experiment [13], in [15], in [16], in [14], in experiment [17] and in experiment [18] was “Less than 70% lysis of parasites” in each case. The Activity entry in [19], in [20], in experiment [21], in [22], in [23] and in [12] was “Less than 70% lysis of parasites” each time.
As for `CCCCCCCCCCCCCCC(CN(CC(=O)OCC)CC(=O)OCC)NC(=O)OC(C)(C)C` (centres undefined), the Activity in [13], in [16], in experiment [14], in experiment [5], in [18] and in experiment [19] was 80-90% lysis of parasites in each case. For the same molecule, the Activity in experiment [7], in experiment [21], in experiment [22], in experiment [27], in experiment [23] and in experiment [12] was 80-90% lysis of parasites in each case.
